One compound from patent publication US9522907B2, “Anticancer agent and process for the preparation thereof” (COUNCIL OF SCIENTIFIC & INDUSTRIAL RESEARCH, priority 2014, dated 2016) can be followed below.

Assay in all cases: cells
Common to all, as to assay type: cell-based

Test [1] has as its system Melanoma cancer cell lines. The settings on record: Homo sapiens; Melanoma; average of cell lines of the cancer type; read-out: Log10 GI50 mean graph midpoint (MG_MID) (converted). From the text:
(§1) The mean graph midpoint values of Log10 GI50 as well as Log10 LC50 for the compounds 2i, 5i and Hoechst 33258 (NSC-322921) is listed in Table 2.
(§2) Each cancer type represents the average of six to eight different cancer cell lines.

Test [2] deals with Colon cancer cell lines. The settings on record: Homo sapiens; Colon; average of cell lines of the cancer type; read-out: Log10 GI50 mean graph midpoint (MG_MID) (converted).
Excerpt: as §1, §2

The test system of test [3] is Non-small-cell lung cancer cell lines. The following applies: Homo sapiens; Non-small-cell lung; average of cell lines of the cancer type; read-out: Log10 GI50 mean graph midpoint (MG_MID) (converted).
Excerpt: as §1, §2

For test [4], the system named is CNS cancer cell lines. The following applies: Homo sapiens.
Excerpt: as §1, §2

The test system of test [5] is Breast cancer cell lines. The settings on record: Homo sapiens.
Excerpt: as §1, §2

The subject of test [6] is Renal cancer cell lines. The settings on record: Homo sapiens.
Excerpt: as §1, §2

In test [7] the test system is Ovarian cancer cell lines. The following applies: Homo sapiens.
Excerpt: as §1, §2

Test [8] concerns Prostate cancer cell lines. The following applies: Homo sapiens.
Excerpt: as §1, §2

The test system of test [9] is Leukemia cancer cell lines. The following applies: Homo sapiens; Leukemia; average of cell lines of the cancer type; read-out: Log10 GI50 mean graph midpoint (MG_MID) (converted).
Excerpt: as §1, §2

Where [10] appears, read: read-out: Log10 LC50 mean graph midpoint (MG_MID) (converted).

`CN1CCN(c2ccc3nc(-c4ccc5nc(-c6ccc(O)cc6)[nH]c5c4)[nH]c3c2)CC1` [Hoechst 33258, reference compound]: the GI50 in test [1] was 25.1 µM; in test [2], 79.4 µM; in test [3], 115 µM; in [4] (CNS, average of cell lines of the cancer type, read-out: Log10 GI50 mean graph midpoint (MG_MID) (converted)), 132 µM; in [5] (Breast, average of cell lines of the cancer type, read-out: Log10 GI50 mean graph midpoint (MG_MID) (converted)) it was 21.4 µM; in test [6] (Renal, average of cell lines of the cancer type, read-out: Log10 GI50 mean graph midpoint (MG_MID) (converted)) it was 166 µM. Moreover, the GI50 was 195 µM in test [7] (Ovarian, average of cell lines of the cancer type, read-out: Log10 GI50 mean graph midpoint (MG_MID) (converted)); 631 µM in test [8] (Prostate, average of cell lines of the cancer type, read-out: Log10 GI50 mean graph midpoint (MG_MID) (converted)); 18.6 µM in [9]. Further, the CC50 is 1320 µM in [4] (setting [10]); 1450 µM in [5] (setting [10]); 1260 µM in test [6] (setting [10]); 1200 µM in test [7] (setting [10]); 1410 µM in test [8] (setting [10]).

Usually GI50 stands for the concentration that inhibits growth by half.
